Measured values from patent US8906852B2 (MethylGene Inc., priority 2010, dated 2014).

molecular target: T1, VEGFR/KDR (Homo sapiens, UniProt P35968); test: VEGFR/KDR kinase inhibition, DELFIA assay; assay type: biochemical; details: ATP 0.6 uM (2x Km), enzyme 5 nM
T1 construct: made in house; host or cells: Sf9 cells (Spodoptera frugiperda), baculovirus
Procedure: Inhibition of VEGFR/KDR is measured in a DELFIA™ assay (Perkin Elmer). The substrate poly(Glu4, Tyr) is immobilized onto black high-binding polystyrene 96-well plates. The coated plates are washed and stored at 4° C. During the assay, the enzyme is pre-incubated with inhibitor and Mg-ATP on ice in polypropylene 96-well plates for 4 minutes, and then transferred to the coated plates. The subsequent kinase reaction takes place at 30° C. for 10-30 minutes. ATP concentrations in the assay are 0.6 uM for VEGFR/KDR (2× the Km). Enzyme concentration is 5 nM. After incubation, the kinase reactions are quenched with EDTA and the plates are washed. Phosphorylated product is detected by incubation with Europium-labeled anti-phosphotyrosine MoAb. After washing the plates, bound MoAb is detected by time-resolved fluorescence in a Gemini SpectraMax reader (Molecular Devices). Compounds are evaluated over a range of concentrations, and IC50 values (concentration of compounds giving 50% inhibition of enzymatic activity) are determined.

T1 sequence (P35968 806-1356): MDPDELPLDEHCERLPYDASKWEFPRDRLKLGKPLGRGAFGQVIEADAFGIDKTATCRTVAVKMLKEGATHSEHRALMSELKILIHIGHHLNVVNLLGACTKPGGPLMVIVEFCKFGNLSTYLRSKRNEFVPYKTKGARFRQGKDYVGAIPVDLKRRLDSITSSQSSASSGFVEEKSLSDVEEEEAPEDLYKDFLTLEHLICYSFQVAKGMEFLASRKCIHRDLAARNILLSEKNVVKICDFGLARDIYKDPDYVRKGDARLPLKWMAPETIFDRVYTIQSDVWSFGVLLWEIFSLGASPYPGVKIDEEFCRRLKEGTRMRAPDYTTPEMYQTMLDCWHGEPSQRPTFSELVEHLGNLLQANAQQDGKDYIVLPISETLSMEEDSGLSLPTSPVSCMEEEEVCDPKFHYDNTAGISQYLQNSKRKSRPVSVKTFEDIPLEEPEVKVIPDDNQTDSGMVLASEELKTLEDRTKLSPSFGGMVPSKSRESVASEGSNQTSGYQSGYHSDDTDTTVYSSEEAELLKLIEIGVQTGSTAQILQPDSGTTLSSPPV

| Structure (SMILES) | IC50 [nM] |
| --- | --- |
| COCCN(Cc1ccc(-c2cc3nccc(Oc4ccc(NC(=O)NC5CC5)cc4F)c3s2)nc1)C(=O)CNC(=O)[C@@H](N)C(C)C [Compound 92, (S)-2-amino-N-(2-(((6-(7-(4-(3-cyclopropylureido)-2-fluorophenoxy)thieno[3,2-b]pyridin-2-yl)pyridin-3-yl)methyl)(2-methoxyethyl)amino)-2-oxoethyl)-3-methylbutanamide] | < 50 |
| COCCN(Cc1ccc(-c2cc3nccc(Oc4ccc(NC(=O)NC5CC5)cc4F)c3s2)nc1)C(=O)CNC(=O)CN [Compound 92-A, 2-(2-aminoacetamido)-N-((6-(7-(4-(3-cyclopropylureido)-2-fluorophenoxy)thieno[3,2-b]pyridin-2-yl)pyridin-3-yl)methyl)-N-(2-methoxyethyl)acetamide] | < 50 |
| COCCN(Cc1ccc(-c2cc3nccc(Oc4ccc(NC(=O)NC5CC5)cc4F)c3s2)nc1)C(=O)[C@@H](NC(=O)CN)C(C)C [Compound 93, (S)-2-(2-aminoacetamido)-N-((6-(7-(4-(3-cyclopropylureido)-2-fluorophenoxy)-thieno[3,2-b]pyridin-2-yl)pyridin-3-yl)methyl)-N-(2-methoxyethyl)-3-methylbutanamide] | < 50 |
| CS(=O)(=O)c1cccc(NC(=O)Nc2ccc(Oc3ccnc4cc(-c5ccc(CN6CCCC6=O)cn5)sc34)c(F)c2)c1 [Compound 105] | < 50 |
| NC(=O)c1cccc(NC(=O)Nc2ccc(Oc3ccnc4cc(-c5ccc(CN6CCCC6=O)cn5)sc34)c(F)c2)c1 [Compound 106, 3-(3-(3-fluoro-4-(2-(5-((2-oxopyrrolidin-1-yl)methyl)pyridin-2-yl)thieno[3,2-b]pyridin-7-yloxy)phenyl)ureido)benzamide] | < 50 |
| N[C@H]1CCN(Cc2ccc(-c3cc4nccc(Oc5ccc(NC(=O)NC6CC6)cc5F)c4s3)nc2)C1=O [Compound 108, (S)-1-(4-(2-(5-((3-amino-2-oxopyrrolidin-1-yl)methyl)pyridin-2-yl)thieno[3,2-b]pyridin-7-yloxy)-3-fluorophenyl)-3-cyclopropylurea] | < 50 |
| N[C@@H]1CCN(Cc2ccc(-c3cc4nccc(Oc5ccc(NC(=O)NC6CC6)cc5F)c4s3)nc2)C1=O [Compound 109, (R)-1-(4-(2-(5-((3-amino-2-oxopyrrolidin-1-yl)methyl)pyridin-2-yl)thieno[3,2-b]pyridin-7-yloxy)-3-fluorophenyl)-3-cyclopropylurea] | < 50 |
| O=C(Nc1ccc(Oc2ccnc3cc(-c4ccc(CN5CC[C@H](O)C5=O)cn4)sc23)c(F)c1)NC1CC1 [Compound 110, (S)-1-cyclopropyl-3-(3-fluoro-4-(2-(5-((3-hydroxy-2-oxopyrrolidin-1-yl)methyl)pyridin-2-yl)thieno[3,2-b]pyridin-7-yloxy)phenyl)urea] | < 50 |
| COCCNCc1ccc(-c2cc3nccc(Oc4ccc(NC(=O)NC5CC5)cc4F)c3s2)cc1 [Compound 113] | < 50 |
| COCCN(Cc1ccc(-c2cc3nccc(Oc4ccc(NC(=O)NC5CC5)cc4F)c3s2)cc1)C(C)=O [Compound 114, N-(4-(7-(4-(3-cyclopropylureido)-2-fluorophenoxy)thieno[3,2-b]pyridin-2-yl)benzyl)-N-(2-methoxyethyl)acetamide] | < 50 |
| COCCOCC(=O)N(CCOC)Cc1ccc(-c2cc3nccc(Oc4ccc(NC(=O)NC5CC5)cc4F)c3s2)cc1 [Compound 115, N-(4-(7-(4-(3-cyclopropylureido)-2-fluorophenoxy)thieno[3,2-b]pyridin-2-yl)benzyl)-2-(2-methoxyethoxy)-N-(2-methoxyethyl)acetamide] | < 50 |
| COCCN(Cc1ccc(-c2cc3nccc(Oc4ccc(NC(=O)NC5CC5)cc4F)c3s2)cc1)C(=O)CO [Compound 115-A, N-(4-(7-(4-(3-cyclopropylureido)-2-fluorophenoxy)thieno[3,2-b]pyridin-2-yl)benzyl)-2-hydroxy-N-(2-methoxyethyl)acetamide] | < 50 |
| COCCN(Cc1ccc(-c2cc3nccc(Oc4ccc(NC(=O)NC5CC5)c(Cl)c4)c3s2)nc1)C(C)=O [Compound 116, N-((6-(7-(3-chloro-4-(3-cyclopropylureido)phenoxy)thieno[3,2-b]pyridin-2-yl)pyridin-3-yl)methyl)-N-(2-methoxyethyl)acetamide] | < 50 |
| COCCN(Cc1cnc(-c2cc3nccc(Oc4ccc(NC(=O)Nc5ccc(F)cc5F)cc4F)c3s2)n1C)C(C)=O [Compound 117, N-((2-(7-(4-(3-(2,4-difluorophenyl)ureido)-2-fluorophenoxy)thieno[3,2-b]pyridin-2-yl)-1-methyl-1H-imidazol-5-yl)methyl)-N-(2-methoxyethyl)acetamide] | < 50 |
| COCCN(Cc1cnc(-c2cc3nccc(Oc4ccc(NC(=O)NC(C)C)cc4F)c3s2)n1C)C(C)=O [Compound 117-A, N-((2-(7-(2-fluoro-4-(3-isopropylureido)phenoxy)thieno[3,2-b]-pyridin-2-yl)-1-methyl-1H-imidazol-5-yl)methyl)-N-(2-methoxyethyl)acetamide] | 50 to 100 |
| O=C(Nc1ccc(Oc2ccnc3cc(C#CCN4CCOCC4)sc23)c(F)c1)Nc1ccc(F)cc1F [Compound 119, 1-(2,4-difluorophenyl)-3-(3-fluoro-4-(2-(3-morpholinoprop-1-ynyl)thieno[3,2-b]pyridin-7-yloxy)phenyl)urea] | 100 to 250 |
| O=C(Nc1ccccc1)Nc1ccc(Oc2ccnc3cc(C#CCN4CCOCC4)sc23)c(F)c1 [Compound 120, 1-(3-fluoro-4-(2-(3-morpholinoprop-1-ynyl)thieno[3,2-b]pyridin-7-yloxy)phenyl)-3-phenylurea] | 100 to 250 |
| O=C(Nc1ccc(Oc2ccnc3cc(-c4ccc(CN5CCOCC5=O)cn4)sc23)c(F)c1)NC1CC1 [Compound 123, 1-cyclopropyl-3-(3-fluoro-4-(2-(5-((3-oxomorpholino)methyl)pyridin-2-yl)thieno[3,2-b]pyridin-7-yloxy)phenyl)urea] | < 50 |
| O=C(Nc1ccc(Oc2ccnc3cc(-c4ccc(C(=O)N5CCCC5)cc4)sc23)c(F)c1)Nc1ccc(F)cc1F [Compound 127, 1-(2,4-difluorophenyl)-3-(3-fluoro-4-(2-(4-(pyrrolidine-1-carbonyl)phenyl)thieno[3,2-b]pyridin-7-yloxy)phenyl)urea] | < 50 |
| CC(C)NC(=O)Nc1ccc(Oc2ccnc3cc(-c4ccc(C(=O)N5CCCC5)cc4)sc23)c(F)c1 [Compound 128, 1-(3-fluoro-4-(2-(4-(pyrrolidine-1-carbonyl)phenyl)thieno[3,2-b]pyridin-7-yloxy)phenyl)-3-isopropylurea] | < 50 |
| O=C(Nc1ccc(Oc2ccnc3cc(-c4ccc(C(=O)N5CCCC5)cc4)sc23)c(F)c1)NC1CC1 [Compound 129, 1-cyclopropyl-3-(3-fluoro-4-(2-(4-(pyrrolidine-1-carbonyl)phenyl)thieno[3,2-b]pyridin-7-yloxy)phenyl)urea] | < 50 |
| CS(=O)(=O)c1cccc(NC(=O)Nc2ccc(Oc3ccnc4cc(-c5ccc(C(=O)N6CCCC6)cc5)sc34)c(F)c2)c1 [Compound 130, 1-(3-fluoro-4-(2-(4-(pyrrolidine-1-carbonyl)phenyl)thieno[3,2-b]pyridin-7-yloxy)phenyl)-3-(3-(methylsulfonyl)phenyl)urea] | < 50 |
| O=C(Nc1ccc(Oc2ccnc3cc(-c4ccc(CN5C(=O)CCC5=O)cn4)sc23)c(F)c1)NC1CC1 [Compound 140, 1-cyclopropyl-3-(4-(2-(5-((2,5-dioxopyrrolidin-1-yl)methyl)pyridin-2-yl)thieno[3,2-b]pyridin-7-yloxy)-3-fluorophenyl)urea] | < 50 |
| CN1CCN(Cc2ccc(-c3cc4nccc(Oc5ccc(NC(=O)NC6CC6)cc5F)c4s3)nc2)C1=O [Compound 141, 1-cyclopropyl-3-(3-fluoro-4-(2-(5-((3-methyl-2-oxoimidazolidin-1-yl)methyl)pyridin-2-yl)thieno[3,2-b]pyridin-7-yloxy)phenyl)urea] | < 50 |
| O=C(Nc1ccc(Oc2ccnc3cc(-c4ccc(CN5CCNC5=O)cn4)sc23)c(F)c1)NC1CC1 [Compound 143, 1-cyclopropyl-3-(3-fluoro-4-(2-(5-((2-oxoimidazolidin-1-yl)methyl)pyridin-2-yl)thieno[3,2-b]pyridin-7-yloxy)phenyl)urea] | < 50 |
| O=C(Nc1ccc(Oc2ccnc3cc(-c4cnn(CCN5CCOCC5)c4)sc23)c(F)c1)NC1CC1 [Compound 155, 1-cyclopropyl-3-(3-fluoro-4-(2-(1-(2-morpholinoethyl)-1H-pyrazol-4-yl)thieno[3,2-b]pyridin-7-yloxy)phenyl)urea] | < 50 |
| O=C(Nc1ccc(Oc2ccnc3cc(-c4cnn(CCOC(=O)NC5CC5)c4)sc23)c(F)c1)NC1CC1 [Compound 157, 2-(4-(7-(4-(3-cyclopropylureido)-2-fluorophenoxy)thieno[3,2-b]pyridin-2-yl)-1H-pyrazol-1-yl)ethyl cyclopropylcarbamate] | < 50 |
| COCCN(Cc1cnc(-c2cc3nccc(Oc4ccc(NC(=O)NC5CC5)cc4F)c3s2)n1C)C(=O)NC1CC1 [Compound 161, 1-((2-(7-(2-fluoro-4-cyclopropylaminocarbonylaminophenoxy)thieno[3,2-b]pyridin-2-yl)-1-methyl-1H-imidazol-5-yl)methyl)-3-cyclopropyl-1-(2-methoxyethyl)urea] | < 50 |
| CCNC(=O)N(CCOC)Cc1cnc(-c2cc3nccc(Oc4ccc(NC(=O)NC(C)C)cc4F)c3s2)n1C [Compound 161-A, 1-((2-(7-(4-isopropylaminocarbonylamino-2-fluorophenoxy)thieno[3,2-b]pyridin-2-yl)-1-methyl-1H-imidazol-5-yl)methyl)-3-ethyl-1-(2-methoxyethyl)urea] | < 50 |
